From patent US7812143B2, “Biomarkers for cancer treatment” (Memorial Sloan-Kettering Cancer Center, priority 2006, dated 2010)

Legend:
[1] = tested on: V600E BRAF tumor cell lines; assay: Treatment of B-RAF mutant tumor cell lines and xenograft models with MEK inhibitors (cyclin D, RB, cell cycle, proliferation); type: cell-based; conditions: tumor cell lines and xenograft models with activating B-RAF mutation (V600E BRAF)
Description: Eleven cells lines, including five BRAF mutants, are characterized by their tissue of lineage and mechanism of MAPK activation, were used for the experiments described herein, and are listed in Table 2.

[2] = tested on: HER2/EGFR (WT BRAF) tumors; assay: Response of HER2/EGFR (WT BRAF) tumors to MEK inhibition, in vitro assays and xenograft models; type: cell-based; conditions: for effectiveness at expected target, phosphorylated MAPK: WT BRAF group compared with V600E BRAF tumors; for sensitivity of tumors with high MAPK activity under the control of activated receptors: in vitro assays and xenograft models
Description: Eleven cells lines, including five BRAF mutants, are characterized by their tissue of lineage and mechanism of MAPK activation, were used for the experiments described herein, and are listed in Table 2. All the cell lines have high levels of MAPK activity.

[3] = tested on: V600E B-RAF xenograft models of melanoma and colon carcinoma; assay: Tumor growth in V600E B-RAF xenograft models; conditions: for tumor growth: compared to vehicle-treated mice, several V600E B-RAF xenograft models of melanoma and colon carcinoma; for cyclin D and Ki-67 in tumor samples: western blot and immunohistochemistry of xenograft tumor samples
SkMel 28 cells = assay: Affymetrix U133A 2.0 gene expression time course after MEK inhibitor; type: cell-based; conditions: 50 nM
Method: SkMel 28 cells (a melanoma cell line with the V600E BRAF mutation) were treated with the MEK inhibitor, PD0325901 (50 nM), for 2, 8, or 24 hours, or no treatment at all (=time 0 hours). Total cellular RNA was analyzed using an Affymetrix U133A 2.0 platform. Pairwise comparisons of gene expression at each individual time point to reference sample (time 0 hours) were performed, and genes were selected using a threshold of two-fold or greater change in either direction. […] Thus, genes which changed greater than or equal to two-fold in either direction in response to PD0325901 compared to control were identified at three time points following MEK inhibition. All genes were assigned to a functional class based on biological process, according to Gene Ontology (GO) classification (FIG. 2). The number of genes changing in each functional classification was assigned a p-value based on the significance of the number of genes changing given the total number of genes changed at that time point, compared to the total number of genes in the GO functional class, and the total number of genes on the chip. An enrichment score was assigned to each functional class, and was defined as the −log 10(p-value).

[4] = tested on: panel of V600E BRAF cell lines; assay: Microarray (SAM) of gene expression, MEK-inhibited versus DMSO control; type: cell-based; conditions: 50 nM, 8 hours, false discovery rate 9%
Method: Mean expression of genes was determined for a panel of V600E BRAF cell lines in each of two conditions, MEK-inhibited (PD0325901 50 nM) or DMSO control, both at 8 hours. The panel of V600E BRAF cell lines included 5 melanoma cell lines (SkMel 1, SkMel 5, SkMel 19, SkMel 28, and MALME 3M) and two colorectal carcinoma cell lines (Colo205 and HT29).
Significance analysis of microarray (SAM) methods were used to determine the significance of difference between the two groups of genes (using a false discovery rate of 9%). […] Expression of the genes was also presented as a heatmap representation (FIG. 3B).

SkMel 5 cells = assay: Quantitative RT-PCR of relative mRNA levels after MEK inhibitor; type: cell-based; conditions: 50 nM; 2, 4, 8 and 24 hrs versus time 0; SkMel 5 (V600E BRAF)
Method: Quantitative RT-PCR was used to determine relative levels of mRNA in cells as a function of time following exposure to the MEK inhibitor (PD0325901 50 nM). SkMel 5 cells were treated with MEK inhibitor (PD0325901 50 nM) for the times indicated (2 hrs, 4 hrs, 8 hrs, and 24 hrs). Following total RNA extraction and an in vitro reverse transcription step, synthesized cDNA was used in a PCR reaction containing pre-designed probe-primer sets purchased from Applied Biosystems and run on an ABI 7500 RT-PCR machine, using software supplied by Applied Biosystems. Relative levels of mRNA compared to the reference sample (time 0) were determined using the ΔΔCT calculation, using HPRT as a housekeeping gene for normalization. In brief, each gene for each sample is assigned a value based on the number of PCR amplification cycles required for the amplified gene product to cross a detection threshold (i.e., a gene detectable at 25 amplification cycles is present in greater starting quantity than a gene product detectable at 30 cycles). The cycle value for each sample for the gene of interest is subtracted from the cycle value for a reference sample (untreated, or time 0), and this value is the delta CT for the gene of interest. […] This is the delta CT for the housekeeping gene. The delta CT (housekeeping gene) is subtracted from the delta CT (gene of interest), and this is the delta delta CT. […]

[5] = tested on: SkMel 5, SkMel 19, and Colo205; assay: Western blot of relative protein expression after MEK inhibitor; type: cell-based; conditions: 50 nM, as a function of time; three V600E BRAF cell lines
Method: Following protein isolation using NP40 1% lysis buffer, Western blot analysis was used to determine relative protein expression in cells as a function of time following exposure to MEK inhibitor (PD0325901 50 nM). […] For the Western Blot analysis, DUSP6 antibody (SantaCruz (#8598)), and SPRY2 antibody (Upstate Cell Signaling Solutions).

Structure (SMILES)	cell cycle [1]	cyclin D levels [1]	phosphorylation of RB [1]	proliferation [1]	effectiveness at expected target, phosphorylated MAPK [2]	sensitivity of tumors with high MAPK activity under the control of activated receptors [2]	tumor growth [3]	cyclin D and Ki-67 in tumor samples [3]	number of genes changing two-fold or greater in either direction (SkMel 28 cells; 2 hours versus time 0) [genes]	number of genes changing two-fold or greater in either direction (SkMel 28 cells; 8 hours versus time 0) [genes]	number of genes changing two-fold or greater in either direction (SkMel 28 cells; 24 hours versus time 0) [genes]	genes downregulated [4] [genes]	genes upregulated [4] [genes]	genes which change significantly in either direction ([4]; 45 probe sets) [genes]	relative mRNA levels of DUSP6, SPRY2, ETV1, ETV5, and CCND1 (SkMel 5 cells)	relative protein expression of DUSP6 and SPRY2 [5]
O=C(NOCC1CC1)c1ccc(F)c(F)c1Nc1ccc(I)cc1Cl [CI-1040]	G1 arrest	decline in cyclin D levels	hypophosphorylation of RB	inhibition of proliferation	not measurably different	resistant	Tumor growth delay was achieved	decline in both cyclin D and Ki-67	–	–	–	–	–	–	–	–
O=C(NOC[C@H](O)CO)c1ccc(F)c(F)c1Nc1ccc(I)cc1F [PD0325901]	G1 arrest	decline in cyclin D levels	hypophosphorylation of RB	inhibition of proliferation	not measurably different	resistant	Tumor growth delay was achieved	decline in both cyclin D and Ki-67	91	327	1191	31	4	35	Decrease in mRNA levels	decrease in protein expression
